The target of this assay is T1, squalene synthetase (Homo sapiens, UniProt P37268).
T1 construct: The HepG2 enzyme preparation was centrifuged at 34,000 rpm to separate the cytosol and microsomal enzymes; host or cells: HepG2 (human hepatoblastoma), resuspended 34,000 rpm pellet of sonicated cells
T1 sequence (P37268 1-417): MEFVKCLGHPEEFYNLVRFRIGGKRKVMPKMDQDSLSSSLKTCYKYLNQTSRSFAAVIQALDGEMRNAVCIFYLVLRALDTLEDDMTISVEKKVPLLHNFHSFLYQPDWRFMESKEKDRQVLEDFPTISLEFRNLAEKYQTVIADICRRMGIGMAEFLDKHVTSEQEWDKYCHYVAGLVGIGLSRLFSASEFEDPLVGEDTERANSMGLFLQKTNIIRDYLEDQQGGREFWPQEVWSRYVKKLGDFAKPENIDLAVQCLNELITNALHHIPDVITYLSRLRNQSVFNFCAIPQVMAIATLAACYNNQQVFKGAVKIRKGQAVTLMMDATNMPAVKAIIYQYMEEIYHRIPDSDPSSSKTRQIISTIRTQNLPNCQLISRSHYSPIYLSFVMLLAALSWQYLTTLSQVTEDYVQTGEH
As to the kind of experiment: Squalene synthetase assay (in vitro, human HepG2 cell enzyme, 3H-farnesyl pyrophosphate substrate). The class given is biochemical. The conditions noted are these: 30° C., 20 minutes. The procedure:
The intrinsic squalene synthetase inhibitory activity of the compound of this invention was measured by the ill vitro protocol described below:
PREPARATION OF HUMAN HepG2 cell ENZYME
1. SOURCE: HEPG2 CELL LINE(Liver, hepatoblastoma, Human) ATCC No. HB 8065
2. CELL GROWTH AND MAINTENANCE
Culture Medium: Minimum essential medium (MEM) with non-essential amino acids, sodium pyruvate, and 10% fetal bovine serum. The medium was changed twice weekly. […] The growth medium is prepared as listed below. […]
Subculture Procedure: Remove medium, wash with PBS, add fresh trypsin (0.25%)-EDTA (0.02%) with Hank's Balanced Salt solution and let flask stand for a minute and remove the trypsin solution . Incubate flask at 37° C. until cells detached. Add fresh medium, disperse and dispense cells into new flasks. Subcultivation ratio: 1:6.
PREPARATION of Delipidated Serum: Fetal calf serum(100 ml) and CAB-O-Sil (2 grams) stir overnight at 4° C. and centrifuge at 16,000 rpm for 5 hrs. […]
For each reaction, 55 μl of buffer mixture was taken with 5 μl of an inhibitor solution in MeOH and 10 μl of diluted enzyme (1 to 1536 as described in the enzyme preparation, the final protein concentration of enzyme in the assay is 1.2 μg per ml.). […] 400 μl of heptane layer was then removed into a […] and mixed with 2.5 ml of scintillation fluid and the radioactivity was determined by liquid scintillation counting. […]

Our source for the IC50 and inhibition values is patent publication US5468771A, “Cholesterol lowering compound” (Merck & Co., Inc., priority 1994, dated 1995).

The IC50 is the concentration that gives 50% inhibition. One may read the inhibition as the relative decrease from the control value, in per cent.

With `C=C(CC[C@]12O[C@H](C(=O)O)[C@@](O)(C(=O)O)[C@](C(=O)O)(O1)[C@H](OC(=O)/C=C/C(C)CC(C)C(C)O)[C@H]2O)[C@@H](OC(C)=O)C(C)Cc1ccccc1` (stereo partly drawn) [compound of this invention, (1S,3S,4S,5S,6R,7R)-1-[(4S)-acetoxy-3-methylene-5-methyl-6-phenyl]hexyl-4,6,7-trihydroxy-6-0-(4,6-dimethyl-7-hydroxy-2-octenoyl)-2,8-dioxabicyclo [3.2.1]octane-3,4,5-tricarboxylic acid], the IC50 (3 μM 3H-farnesyl pyrophosphate, estimated, with a dose related inhibition, read-out: IC50 against squalene synthetase) was approximately 0.091 nM. Where the note is “tested at a concentration of 1.8 nM”, this compound showed an inhibition at 0.0018 µM of 99%.
